Test results taken from patent US7465751B2 (priority 2002, dated 2008).

Assays:
M2 muscarinic receptor = M2 muscarinic receptor (Rattus norvegicus, UniProt P10980); format: binding
M3 muscarinic receptor = M3 muscarinic receptor (Rattus norvegicus, UniProt P08483); format: binding
Sequence of M3 muscarinic receptor (P08483 whole entry): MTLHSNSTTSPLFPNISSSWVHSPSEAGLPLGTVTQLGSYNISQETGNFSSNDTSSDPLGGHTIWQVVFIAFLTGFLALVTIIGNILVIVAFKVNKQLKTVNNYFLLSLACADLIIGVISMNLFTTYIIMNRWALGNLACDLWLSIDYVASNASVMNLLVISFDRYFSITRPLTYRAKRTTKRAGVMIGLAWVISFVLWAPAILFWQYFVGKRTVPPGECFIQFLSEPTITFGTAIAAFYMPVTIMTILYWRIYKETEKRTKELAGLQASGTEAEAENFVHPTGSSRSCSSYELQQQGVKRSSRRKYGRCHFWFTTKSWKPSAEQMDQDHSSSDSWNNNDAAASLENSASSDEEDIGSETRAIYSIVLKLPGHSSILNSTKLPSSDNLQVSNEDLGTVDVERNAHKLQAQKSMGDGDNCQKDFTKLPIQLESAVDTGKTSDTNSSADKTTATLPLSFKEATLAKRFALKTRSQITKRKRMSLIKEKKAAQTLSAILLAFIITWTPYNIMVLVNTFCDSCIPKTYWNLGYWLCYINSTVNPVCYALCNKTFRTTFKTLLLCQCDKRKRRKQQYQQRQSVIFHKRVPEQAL

Sequence of M2 muscarinic receptor (P10980 whole entry): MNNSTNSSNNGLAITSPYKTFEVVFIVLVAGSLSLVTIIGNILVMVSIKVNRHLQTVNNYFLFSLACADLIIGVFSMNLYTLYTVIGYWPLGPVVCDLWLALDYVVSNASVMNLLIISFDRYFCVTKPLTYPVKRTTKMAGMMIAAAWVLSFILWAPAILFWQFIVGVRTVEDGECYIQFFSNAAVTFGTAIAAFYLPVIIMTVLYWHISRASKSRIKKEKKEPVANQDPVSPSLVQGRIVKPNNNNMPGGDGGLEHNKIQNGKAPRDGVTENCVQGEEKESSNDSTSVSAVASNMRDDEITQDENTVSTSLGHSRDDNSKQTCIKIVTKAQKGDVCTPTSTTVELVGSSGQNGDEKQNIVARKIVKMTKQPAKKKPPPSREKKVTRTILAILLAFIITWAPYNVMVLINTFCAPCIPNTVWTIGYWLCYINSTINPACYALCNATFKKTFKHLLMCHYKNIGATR

(3S)-1-[(phenylacetyl)pyrrolidin-3-yl]cyclopentyl(hydroxy)phenyl acetate [Compound No. 11]
Receptor Binding Assay M2 PKi (M2 muscarinic receptor): <6
Receptor Binding Assay M3 pki (M3 muscarinic receptor): <6
